Laboratory results as given in patent publication US20100029604A1, “ANTIBACTERIAL COMBINATION AND ITS USE” (priority 2007, published 2010).
In brackets after ≈: the same amount, converted by molar mass. Where two headings read alike, the source gives them in different places.

Assays:
[1] = tested on: K. pneumoniae SHV-18; assay: Synergy MIC, inhibitor at 4 μg/mL (Example 4); format: cell-based; settings: SHV-18, class A, inhibitor constant 4 μg/mL
[2] = tested on: Escherichia coli TEM-1; format: cell-based
Experimental: (§1) The MIC experiments were performed in duplicate in 96-well microtiter plates using CAMHB. Serial twofold dilutions of each antibiotic either alone or in combination with constant concentration ratio of a β-lactamase inhibitor (2:1) were prepared in CAMHB. The bacterial suspension with final inoculum 10^5 CFU/mL was transferred to the test medium containing the antibacterial substances. In each well of a 96-well microtiter plate was combined 50 μL of bacterial inoculum, 50 μL of antibiotic dilutions (or media for determination of the MIC of the antibiotic in the absence of test compound). Each plate included 4 wells with no bacterial inoculum (negative control) and 4 wells with no test compound and no antibiotic (positive control). The plates were incubated at 35° C. for 24 h. Purity check and colony counts on each inoculum suspension was performed to ensure that the final inoculum concentration routinely obtained closely approximates 5×10^5 CFU/mL. In addition the assay is routinely monitored by testing standard antibiotics and ensuring that MIC values are within the recommended ranges for the respective strains.
(§2) This test permits comparisons to be made between bacterial growth in the presence of antibiotic alone and bacterial growth in the presence of both an antibiotic and a novel (test) compound.

[3] = tested on: Escherichia coli OXA-5; assay: MIC, characterised β-lactamase producing strain (Example 5, Tables 5-7); format: cell-based
Experimental: as §1, §2

[4] = tested on: Escherichia coli TEM-35; assay: as above; format: cell-based
Experimental: as §1, §2

[5] = tested on: Escherichia coli HMS-1; assay: as above; format: cell-based
Experimental: as §1, §2

[6] = tested on: E. coli TEM-1; format: cell-based; settings: TEM-1, class A, inhibitor constant 4 μg/mL
[7] = tested on: Escherichia coli SHV-2; assay: MIC, characterised β-lactamase producing strain (Example 5, Tables 5-7); format: cell-based
Experimental: as §1, with “Serial twofold dilutions of each antibiotic either alone or in combination with constant concentration ratio of a β-lactamase inhibitor (2:1) were prepared in CAMHB.” left out
as §2

[8] = tested on: Klebsiella pneumoniae TEM-31; assay: as above; format: cell-based
Experimental: as §1, with “Serial twofold dilutions of each antibiotic either alone or in combination with constant concentration ratio of a β-lactamase inhibitor (2:1) were prepared in CAMHB.” left out
as §2

[9] = tested on: Escherichia coli TEM-50; assay: as above; format: cell-based
Experimental: as §1, with “Serial twofold dilutions of each antibiotic either alone or in combination with constant concentration ratio of a β-lactamase inhibitor (2:1) were prepared in CAMHB.” left out
as §2

[10] = tested on: Klebsiella pneumoniae TEM-1, SHV; assay: as above; format: cell-based
Experimental: as §1, with “Serial twofold dilutions of each antibiotic either alone or in combination with constant concentration ratio of a β-lactamase inhibitor (2:1) were prepared in CAMHB.” left out
as §2

[11] = tested on: Escherichia coli TEM-7; assay: as above; format: cell-based
Experimental: as §1, with “Serial twofold dilutions of each antibiotic either alone or in combination with constant concentration ratio of a β-lactamase inhibitor (2:1) were prepared in CAMHB.” left out
as §2

[12] = tested on: Klebsiella pneumoniae LAT-1; assay: as above; format: cell-based
Experimental: as §1, with “Serial twofold dilutions of each antibiotic either alone or in combination with constant concentration ratio of a β-lactamase inhibitor (2:1) were prepared in CAMHB.” left out
as §2

[13] = tested on: Proteus mirabilis TEM-52; assay: as above; format: cell-based
Experimental: as §1, with “Serial twofold dilutions of each antibiotic either alone or in combination with constant concentration ratio of a β-lactamase inhibitor (2:1) were prepared in CAMHB.” left out
as §2

[14] = tested on: Escherichia coli TEM-5; assay: as above; format: cell-based
Experimental: as §1, with “Serial twofold dilutions of each antibiotic either alone or in combination with constant concentration ratio of a β-lactamase inhibitor (2:1) were prepared in CAMHB.” left out
as §2

[15] = tested on: Pseudomonas aeruginosa OXA-10; assay: as above; format: cell-based
Experimental: as §1, with “Serial twofold dilutions of each antibiotic either alone or in combination with constant concentration ratio of a β-lactamase inhibitor (2:1) were prepared in CAMHB.” left out
as §2

[16] = tested on: Pseudomonas aeruginosa PSE-1; assay: as above; format: cell-based
Experimental: as §1, with “Serial twofold dilutions of each antibiotic either alone or in combination with constant concentration ratio of a β-lactamase inhibitor (2:1) were prepared in CAMHB.” left out
as §2

[17] = tested on: Escherichia coli TEM-6; assay: as above; format: cell-based
Experimental: as §1, with “Serial twofold dilutions of each antibiotic either alone or in combination with constant concentration ratio of a β-lactamase inhibitor (2:1) were prepared in CAMHB.” left out
as §2

[18] = tested on: Escherichia coli TEM-20; assay: as above; format: cell-based
Experimental: as §1, with “Serial twofold dilutions of each antibiotic either alone or in combination with constant concentration ratio of a β-lactamase inhibitor (2:1) were prepared in CAMHB.” left out
as §2

[19] = tested on: Pseudomonas aeruginosa LCR-1; assay: as above; format: cell-based
Experimental: as §1, with “Serial twofold dilutions of each antibiotic either alone or in combination with constant concentration ratio of a β-lactamase inhibitor (2:1) were prepared in CAMHB.” left out
as §2

[20] = tested on: E. cloacae AmpC; assay: Synergy MIC, inhibitor at 4 μg/mL (Example 4); format: cell-based, Enterobacter Cloacae; settings: class C, inhibitor constant 4 μg/mL
Experimental: The in vitro activities of the antibiotics were determined by the broth microdilution method and agar dilution technique as recommended by CLSI guidelines. The MIC experiments were performed in duplicate in 96-well microtiter plates using MHB. Serial twofold dilutions of each antibiotic either alone or in combination with a constant amount (4 μg/mL) of a β-lactamase inhibitor were prepared in MHBII broth. A sterile pipette tip was used to mix the contents of each well (one tip was used going from the low to the high concentration in the same column). The bacterial suspension with final inoculum 10^5 CFU/mL was transferred to the test medium containing the antibacterial substances by a multipoint inoculator (Dynatech, Chantilly, Va., USA). The plates were then incubated at 35° C. for 24 h.
Following procedures identical to those described in Example 3, representative compound of Formula (I) was tested for its ability to enhance antibiotic efficacy against Class C β-lactamase positive bacterial strains that are highly resistant to β-lactam antibiotics. Class C enzymes included AmpC β-lactamases of Enterobacter Cloacae and Citrobacter freundii.

Compound: CO/N=C(\C(=O)N[C@@H]1C(=O)N2C(C(=O)[O-])=C(C[N+]3(C)CCCC3)CS[C@H]12)c1csc(N)n1 [cefepime]
- MIC [1]: 0.8 mg/L
- MIC ([2]; Escherichia coli TEM-1, functional group 2b, LK-157 in combination constant 4 μg/mL): 0.125 mg/L
- MIC ([3]; Escherichia coli OXA-5, functional group 2d, LK-157 in combination constant 4 μg/mL): 0.125 mg/L
- MIC ([4]; Escherichia coli TEM-35, functional group 2br, LK-157 in combination constant 4 μg/mL): 0.125 mg/L
- MIC ([5]; Escherichia coli HMS-1, functional group 2b, LK-157 in combination constant 4 μg/mL): 0.125 mg/L
- MIC [6]: 12.8 mg/L (≈ 26.6 µM)
- MIC ([7]; Escherichia coli SHV-2, functional group 2be, LK-157 in combination constant 4 μg/mL): 2 mg/L
- MIC ([8]; Klebsiella pneumoniae TEM-31, functional group 2br, LK-157 in combination constant 4 μg/mL): 0.125 mg/L
- MIC ([9]; Escherichia coli TEM-50, functional group 2be, LK-157 in combination constant 4 μg/mL): 32 mg/L
- MIC ([10]; functional group 2b, unknown, LK-157 in combination constant 4 μg/mL): 4 mg/L
- MIC ([11]; Escherichia coli TEM-7, functional group 2be, LK-157 in combination constant 4 μg/mL): 16 mg/L
- MIC ([12]; Klebsiella pneumoniae LAT-1, functional group 1, LK-157 in combination constant 4 μg/mL): 0.125 mg/L
- MIC ([13]; Proteus mirabilis TEM-52, functional group 2be, LK-157 in combination constant 4 μg/mL): 16 mg/L
- MIC ([14]; Escherichia coli TEM-5, functional group 2be, LK-157 in combination constant 4 μg/mL): 0.5 mg/L
- MIC ([15]; Pseudomonas aeruginosa OXA-10, functional group 2d, LK-157 in combination constant 4 μg/mL): 64 mg/L
- MIC ([16]; Pseudomonas aeruginosa PSE-1, functional group 2c, LK-157 in combination constant 4 μg/mL): 32 mg/L
- MIC ([17]; Escherichia coli TEM-6, functional group 2be, LK-157 in combination constant 4 μg/mL): 4 mg/L
- MIC ([18]; Escherichia coli TEM-20, functional group 2be, LK-157 in combination constant 4 μg/mL): 4 mg/L
- MIC ([19]; Pseudomonas aeruginosa LCR-1, functional group 2d, LK-157 in combination constant 4 μg/mL): 128 mg/L
- MIC ([20]; first listed): 0.8 mg/L
- MIC ([20]; second listed): 1.6 mg/L
- MIC ([20]; third listed): 1.6 mg/L

Compound: CO/N=C(\C(=O)N[C@@H]1C(=O)N2C(C(=O)O)=C(COC(C)=O)CS[C@H]12)c1csc(N)n1 [cefotaxime]
- MIC [1]: 3.2 mg/L
- MIC ([2]; Table 6, Escherichia coli TEM-1, LK-157 at constant 4 μg/mL in combination): 0.063 mg/L
- MIC ([3]; Table 6, Escherichia coli OXA-5, LK-157 at constant 4 μg/mL in combination): 0.25 mg/L
- MIC ([4]; Table 6, Escherichia coli TEM-35, LK-157 at constant 4 μg/mL in combination): 0.031 mg/L
- MIC ([5]; Table 6, Escherichia coli HMS-1, LK-157 at constant 4 μg/mL in combination): 0.063 mg/L
- MIC [6]: > 25.6 mg/L
- MIC ([7]; Table 6, Escherichia coli SHV-2, LK-157 at constant 4 μg/mL in combination): 4 mg/L
- MIC ([8]; Table 6, Klebsiella pneumoniae TEM-31, LK-157 at constant 4 μg/mL in combination): 0.063 mg/L
- MIC ([9]; Table 6, Escherichia coli TEM-50, LK-157 at constant 4 μg/mL in combination): 8 mg/L
- MIC ([10]; Table 6, LK-157 at constant 4 μg/mL in combination): 4 mg/L
- MIC ([11]; Table 6, Escherichia coli TEM-7, LK-157 at constant 4 μg/mL in combination): 0.25 mg/L
- MIC ([12]; Table 6, Klebsiella pneumoniae LAT-1, LK-157 at constant 4 μg/mL in combination): 4 mg/L
- MIC ([13]; Table 6, Proteus mirabilis TEM-52, LK-157 at constant 4 μg/mL in combination): 16 mg/L
- MIC ([14]; Table 6, Escherichia coli TEM-5, LK-157 at constant 4 μg/mL in combination): 0.063 mg/L
- MIC ([15]; Table 6, Pseudomonas aeruginosa OXA-10, LK-157 at constant 4 μg/mL in combination): 64 mg/L
- MIC ([16]; Table 6, Pseudomonas aeruginosa PSE-1, LK-157 at constant 4 μg/mL in combination): 16 mg/L
- MIC ([17]; Table 6, Escherichia coli TEM-6, LK-157 at constant 4 μg/mL in combination): 0.5 mg/L
- MIC ([18]; Table 6, Escherichia coli TEM-20, LK-157 at constant 4 μg/mL in combination): 2 mg/L
- MIC ([19]; Table 6, Pseudomonas aeruginosa LCR-1, LK-157 at constant 4 μg/mL in combination): 64 mg/L
- MIC ([20]; first listed): > 25.6 mg/L
- MIC ([20]; second listed): > 25.6 mg/L
- MIC ([20]; third listed): > 25.6 mg/L

Compound: CC(C)(O/N=C(\C(=O)N[C@@H]1C(=O)N2C(C(=O)[O-])=C(C[n+]3ccccc3)CS[C@H]12)c1csc(N)n1)C(=O)O [ceftazidime]
- MIC [1]: 25.6 mg/L
- MIC ([2]; Table 7, Escherichia coli TEM-1, combination at constant concentration ratio (2:1)): 0.25 mg/L
- MIC ([3]; Table 7, Escherichia coli OXA-5, combination at constant concentration ratio (2:1)): 0.5 mg/L
- MIC ([4]; Table 7, Escherichia coli TEM-35, combination at constant concentration ratio (2:1)): 0.25 mg/L
- MIC ([5]; Table 7, Escherichia coli HMS-1, combination at constant concentration ratio (2:1)): 0.25 mg/L
- MIC [6]: 3.2 mg/L (≈ 5.85 µM)
- MIC ([7]; Table 7, Escherichia coli SHV-2, combination at constant concentration ratio (2:1)): 2 mg/L
- MIC ([8]; Table 7, Klebsiella pneumoniae TEM-31, combination at constant concentration ratio (2:1)): 0.25 mg/L
- MIC ([9]; Table 7, Escherichia coli TEM-50, combination at constant concentration ratio (2:1)): 8 mg/L
- MIC ([10]; Table 7, combination at constant concentration ratio (2:1)): 8 mg/L
- MIC ([11]; Table 7, Escherichia coli TEM-7, combination at constant concentration ratio (2:1)): 32 mg/L
- MIC ([12]; Table 7, Klebsiella pneumoniae LAT-1, combination at constant concentration ratio (2:1)): 8 mg/L
- MIC ([13]; Table 7, Proteus mirabilis TEM-52, combination at constant concentration ratio (2:1)): 4 mg/L
- MIC ([14]; Table 7, Escherichia coli TEM-5, combination at constant concentration ratio (2:1)): 4 mg/L
- MIC ([15]; Table 7, Pseudomonas aeruginosa OXA-10, combination at constant concentration ratio (2:1)): 4 mg/L
- MIC ([16]; Table 7, Pseudomonas aeruginosa PSE-1, combination at constant concentration ratio (2:1)): 2 mg/L
- MIC ([17]; Table 7, Escherichia coli TEM-6, combination at constant concentration ratio (2:1)): ≧128 μg/mL
- MIC ([18]; Table 7, Escherichia coli TEM-20, combination at constant concentration ratio (2:1)): 2 mg/L
- MIC ([19]; Table 7, Pseudomonas aeruginosa LCR-1, combination at constant concentration ratio (2:1)): 4 mg/L
- MIC ([20]; first listed): > 25.6 mg/L
- MIC ([20]; second listed): > 25.6 mg/L
- MIC ([20]; third listed): > 25.6 mg/L
